# In patent US10765642B2, “Composition for preventing or treating muscle weakness-related diseases comprising sobrerol” (KOREA RESEARCH INSTITUTE OF BIOSCIENCE AND BIOTECHNOLOGY, priority 2015, dated 2020):
# How the values were obtained:
# [1] = system: female C57BL/6 mice at the age of 21 months; assay: treadmill test in aged mice; assay type: in vivo; conditions: 5 weeks
# Method: One day prior to the treadmill test, the equipment was warmed up at a rate of 6 m/min for 10 minutes. At the starting point, electric stimulation was configured to flow so that the mice were forced to exercise. The next day, the test was started at a speed of 8 m/min and the speed was increased by 2 m/min every 20 minutes. One hour after the start of the treadmill test, the speed of 12 m/min was maintained, and the angle was increased by 5° and the electric stimulation was turned off. After 20 minutes, the angle of 5° was maintained but only the speed was increased by 2 m/min. Under the above condition, the running times of the mice were measured and recorded.
# (§1) Experiments were conducted to confirm whether sobrerol increases muscle strength in aged mice. Female C57BL/6 mice at the age of 21 months were adapted to the environment for 2 weeks and then orally administered with drugs for 5 weeks. Specifically, the negative control group was administered with water, the positive control group was administered with clenbuterol at a concentration of 2 mg/kg (mouse), and the sobrerol administration experimental group was orally administered with sobrerol at a concentration of 17.6 or 35.3 mg/kg (mouse). Then, locomotion tests (grip strength, treadmill) were conducted again to verify the effect.
# Tread mill test is the same as Example 3-3.
# [2] = system: MyoD; assay: qRT-PCR of myogenic regulatory factor mRNA in C2C12 myoblasts: MyoD; assay type: cell-based; conditions: 0.1 μM sobrerol, 48 hours, growth medium
# Method: (§2) Experiments were conducted to verify the effect of sobrerol on mRNA of myogenic regulatory factor. Specifically, the myoblasts (C2C12 myoblast cells) placed in the growth medium were treated with 0.1 μM sobrerol for 48 hours, and then subjected to qRT-PCR to measure the levels of MyoD, myogenin, and myosin heavy chain (MyHC).
# [3] = system: myogenin promoter; assay: secreted MyoG luciferase assay system (myogenin promoter-secreted luciferase C2C12 myoblast line); assay type: cell-based; conditions: for luciferase activity increase as compared to the negative control: negative control (MeOH) set at 1
# Excerpt: To evaluate the myoblast differentiation-promoting capability of sobrerol, a secreted MyoG luciferase assay system was used (FIG. 1). Specifically, the promoter portion of myogenin, which is a protein whose expression is increased upon myogenesis, was cloned into a secreted luciferase vector (pMetLuc2-Reporter Vector, Clontech), and then the vector was transfected into myoblasts C2C12 to prepare a myogenin promoter-secreted luciferase C2C12 myoblast line capable of stably expressing the luciferase enzyme The differentiation degree of the myoblasts into myotube cells can be quantitatively verified through the system in which the luciferase enzymes are secreted into the medium as the myogenin promoter is activated. To induce differentiation into muscle cells, DMEM (Dulbecco's Modified Eagle Medium, Invitrogen) medium supplemented with 2% horse serum was added to the C2C12 myoblasts. Herein, the expressed MEF2 and MyoD bind to the myogenin promoter, and then the luciferase enzymes are expressed and secreted out of the cell. Since the secreted luciferase enzymes are present in the medium, it can be measured to verify the degree of myogenesis. […] Specific experimental methods are as follows. On the first day, the C2C12 cells prepared in the Example 1-1 were inoculated into a 96-well plate containing DMEM medium supplemented with 10% bovine serum (FBS) at a concentration of 5×10^3 cells/well. In the morning of the second day, the medium of the well plate was replaced with DMEM medium (Growth medium, GM) supplemented with 10% bovine serum, which is the same component. In the afternoon, the medium (GM) was collected. Then, each well was treated with 100 μL of DMEM medium (differentiation medium 1, DM1) supplemented with 2% horse serum diluted with the sobrerol at each concentration. On the third day, the DM1 medium was collected, and the wells were treated with the same medium as in the second day (DM2). On the fourth day, the DM2 was collected. The media containing the luciferase secreted in the differentiation process of C2C12 cells were collected starting from the growth medium (GM) to the first day differentiation medium (DM1) and the second day differentiation medium (DM2) as described above, and 5 μL of coelenterazine as a substrate was added to 50 μL of the collected medium containing the luciferase enzyme, and the generated light was measured using a luminometer. The myogenesis-promoting capability of sobrerol at each concentration was measured through digitization by subtracting the measured values of DM0 from the measured values of DM1 and DM2. […] Ready-To-Glow™ Secreted Luciferase Reporter Systems (Clontech) was used as the luciferase assay kit, and the experiment was repeated three times.
# [4] = system: tibialis anterior (TA) muscle fibers; assay: muscle fiber diameter (laminin immunofluorescence of tibialis anterior section) in aged mice; assay type: in vivo; conditions: aged mice fed with sobrerol
# Method: In addition, after the exercise restriction in the Example 3-3, sections of the tibialis anterior (TA) were stained by immunofluorescence analysis using the antibodies against laminin, which is a protein existing at the periphery of muscle fibers, and the diameter of each muscle fiber was measured.
# as §1
# (§3) In addition, changes in the muscle size and the muscle weight of the aged mice by sobrerol were verified by the method of the Example 3-3.
# (§4) In addition, as in the Example 3-3, the diameter of the muscle fiber of the tibialis anterior (TA) section was measured by immunofluorescence analysis using laminin antibodies.
# [5] = system: myogenin; assay: qRT-PCR of myogenic regulatory factor mRNA in C2C12 myoblasts: myogenin; assay type: cell-based; conditions: 0.1 μM sobrerol, 48 hours, growth medium
# Method: as §2
# [6] = system: male C57BL/6 mice; assay: treadmill test after hind limb immobilization and remobilization; assay type: in vivo; conditions: immobilized mice
# Method: A total of 45 male C57BL/6 mice at 5 weeks of age (Daehan BioLink) were used in this animal experiment. After 2 weeks of adaptation to the surrounding environment, sobrerol was orally administered twice daily since 7 weeks of age. The control group was administered with 200 μL of water/20 g of mouse, and sobrerol was orally administered at a ratio of 1:2:4 [8.8 mg/200 μL/20 g (mouse), 17.6 mg/200 μL/20 g (mouse) and 35.3 mg/200 μL/20 g (mouse)] to verify dose dependency. At 8 weeks of age, both hind limbs of the mice were immobilized for 10 days using a surgical stapler (Autosuture Royal 35W stapler). (A novel hindlimb immobilization procedure for studying skeletal muscle atrophy and recovery in mouse. J Appl Physiol 106: 2049-2059, 2009). After removing the surgical stapler, they were allowed to move again for 3 days (remobilization), and then exercise capability improvement-verification tests (treadmill, and grip tests) were conducted. The equipment shown in FIG. 8 was used for the treadmill test. The treadmill test was conducted as shown in FIG. 9 with reference to the treadmill protocol of used for the treadmill test (DOI 10.1016/j.cell.2006.11.013_Cell, Volume 127 Supplemental Data). One day prior to the treadmill test, the equipment was warmed up at a rate of 6 m/min for 10 minutes. At the starting point, electric stimulation was configured to flow so that the mice were forced to exercise. The next day, the test was started at a speed of 8 m/min and the speed was increased by 2 m/min every 20 minutes. One hour after the start of the treadmill test, the speed of 12 m/min was maintained, and the angle was increased by 5° and the electric stimulation was turned off. After 20 minutes, the angle of 5° was maintained but only the speed was increased by 2 m/min. Under the above condition, the running times of the mice were measured and recorded.
# [7] = system: male C57BL/6 mice; assay: muscle weight measurement after exercise restriction; assay type: in vivo; conditions: oral
# Method: (§5) A total of 45 male C57BL/6 mice at 5 weeks of age (Daehan BioLink) were used in this animal experiment. After 2 weeks of adaptation to the surrounding environment, sobrerol was orally administered twice daily since 7 weeks of age. The control group was administered with 200 μL of water/20 g of mouse, and sobrerol was orally administered at a ratio of 1:2:4 [8.8 mg/200 μL/20 g (mouse), 17.6 mg/200 μL/20 g (mouse) and 35.3 mg/200 μL/20 g (mouse)] to verify dose dependency. At 8 weeks of age, both hind limbs of the mice were immobilized for 10 days using a surgical stapler (Autosuture Royal 35W stapler). (A novel hindlimb immobilization procedure for studying skeletal muscle atrophy and recovery in mouse. J Appl Physiol 106: 2049-2059, 2009). After removing the surgical stapler, they were allowed to move again for 3 days (remobilization), and then exercise capability improvement-verification tests (treadmill, and grip tests) were conducted. As a result, the diameters of the muscle fibers of the mice orally administered with sobrerol were larger than those of the control group orally administered with distilled water (FIG. 11).
# [8] = system: tibialis anterior (TA) muscle fibers; assay: muscle fiber diameter (laminin immunofluorescence of tibialis anterior sections) after exercise restriction; assay type: in vivo, mice; conditions: oral
# Method: A total of 45 male C57BL/6 mice at 5 weeks of age (Daehan BioLink) were used in this animal experiment. After 2 weeks of adaptation to the surrounding environment, sobrerol was orally administered twice daily since 7 weeks of age. The control group was administered with 200 μL of water/20 g of mouse, and sobrerol was orally administered at a ratio of 1:2:4 [8.8 mg/200 μL/20 g (mouse), 17.6 mg/200 μL/20 g (mouse) and 35.3 mg/200 μL/20 g (mouse)] to verify dose dependency. At 8 weeks of age, both hind limbs of the mice were immobilized for 10 days using a surgical stapler (Autosuture Royal 35W stapler). (A novel hindlimb immobilization procedure for studying skeletal muscle atrophy and recovery in mouse. J Appl Physiol 106: 2049-2059, 2009). After removing the surgical stapler, they were allowed to move again for 3 days (remobilization), and then exercise capability improvement-verification tests (treadmill, and grip tests) were conducted. In addition, after the exercise restriction in the Example 3-3, sections of the tibialis anterior (TA) were stained by immunofluorescence analysis using the antibodies against laminin, which is a protein existing at the periphery of muscle fibers, and the diameter of each muscle fiber was measured.
# [9] = system: aged mice; assay: treadmill test in aged mice after exercise restriction; assay type: in vivo; conditions: hind limbs immobilized 5 days then remobilization
# Method: as §1
# Both hind limbs of the mice were immobilized for 5 days using a surgical stapler (Autosuture Royal 35W stapler), and after removing the surgical stapler, they were allowed to move again (remobilization), and then exercise capability was evaluated by a treadmill test. As a result, the running time on the treadmill decreased after the exercise restriction as compared to that before the exercise restriction in the control group administered with distilled water, whereas the running time was not affected by exercise restriction in the experiment group administered with sobrerol (FIG. 17).
# [10] = system: myosin heavy chain protein; assay: immunofluorescence of myosin heavy chain protein in C2C12 myoblasts; assay type: cell-based; conditions: 0.1 μM sobrerol, 72 hours, differentiation medium
# Method: Among the myogenic regulatory factors whose mRNA increased in the Example 2-1, experiments were conducted to verify the effect of sobrerol on the expression of myosin heavy chain. Specifically, the expression level of the myosin heavy chain protein was measured by immunofluorescence after treating the C2C12 myoblasts placed in the differentiation medium with 0.1 μM of sobrerol for 72 hours.
# [11] = system: male C57BL/6 mice; assay: grip strength test after hind limb immobilization and remobilization; assay type: in vivo
# Method: as §5, with “conducted.” for “conducted. As a result, the diameters of the muscle fibers of the mice orally administered with sobrerol were larger than those of the control group orally administered with distilled water (FIG. 11).”
# (§6) The grip strength was measured using a grip strength measuring device for mouse (BIOSEB) (FIG. 6). Specifically, the front limbs of the mice of the Example 3-1 were placed on a wire net attached to an instrument panel capable of monitoring the strength, and the strength to hold the wire net was measured while the tail was gripped and pulled downward. The test was repeated three times in succession.
# [12] = system: female C57BL/6 mice at the age of 21 months; assay: muscle weight in aged mice; assay type: in vivo; conditions: 35.3 mg/kg
# Method: as §1, §3, §4
# [13] = system: myosin heavy chain (MyHC); assay: qRT-PCR of myogenic regulatory factor mRNA in C2C12 myoblasts: myosin heavy chain; assay type: cell-based; conditions: 0.1 μM sobrerol, 48 hours, growth medium
# Method: as §2
# [14] = system: female C57BL/6 mice at the age of 21 months; assay: grip strength test in aged mice; assay type: in vivo; conditions: oral for 5 weeks; for fatigue (grip strength weakening) on repeated grip strength measurement: sobrerol 17.6 or 35.3 mg/kg, clenbuterol 2 mg/kg
# Method: as §6, §1
# The grip strength test is the same as the Example 3-2.
structure (smiles),measurement,setting,value
CC1=CCC(C(C)(C)O)CC1O (centres unmarked) [sobrerol],treadmill running time versus negative control group,[1]; 17.6 mg/kg oral,significantly longer
same,treadmill running time versus negative control group,[1]; 35.3 mg/kg oral,longer running time than the negative control group
same,MyoD mRNA increase,[2],2 fold
same,luciferase activity increase as compared to the negative control,"[3]; 0.01 nM sobrerol, C2C12",≥ 1.2 fold
same,luciferase activity versus control group,"[3]; 0.01 nM to 10 μM sobrerol, C2C12",higher luciferase activity than the control group
same,luciferase activity increase as compared to the negative control,"[3]; 0.1 nM sobrerol, C2C12",about 1.5 fold
same,concentration with the greatest differentiation-promoting capability,[3]; C2C12 myogenin promoter luciferase,0.1 nM
same,diameters of the muscle fibers (tibialis anterior section),[4],further increased
same,myogenin mRNA increase,[5],4 fold
same,treadmill running time versus group administered with distilled water,"[6]; 8.8 mg/kg oral, still shorter than non-immobilization group",slightly longer
same,treadmill running time versus non-immobilization group,[6]; 17.6 mg/kg oral,almost similar to the non-immobilization group
same,treadmill running time versus non-immobilization group,[6]; 35.3 mg/kg oral,longer as compared to the non-immobilization group
same,weight of extensor digitorum longus (EDL),[7],significantly increased
same,weight of gastrocnemius (GA),[7],significantly increased
same,weight of soleus,[7],significantly increased
same,weight of tibialis anterior (TA),[7],significantly increased
same,diameters of the muscle fibers (tibialis anterior) versus distilled water control,[8],larger
same,treadmill running time after exercise restriction versus before,[9],not affected
same,myosin heavy chain protein fluorescence intensity versus DMSO group,[10],stronger
same,grip strength with higher concentration of sobrerol administered,"[11]; oral 8.8, 17.6, 35.3 mg/kg, immobilized mice",increasing tendency
same,grip strength measurement value,"[11]; oral, twice daily, hind limbs immobilized 10 days, remobilization 3 days, negative control 3.5 N or less",≥ 4.0 N
same,weights of the gastrocnemius (GA),[12],increased to a significant level
same,myosin heavy chain mRNA increase,[13],≥ 25 fold
same,"first measured grip strength values, difference between groups",[14],no differences
same,fatigue (grip strength weakening) on repeated grip strength measurement,[14],did not show the increase in fatigue
CC(C)(C)NCC(O)c1cc(Cl)c(N)c(Cl)c1 (centres unmarked) [clenbuterol],fatigue (grip strength weakening) on repeated grip strength measurement,[14],did not show the increase in fatigue
